Here are results for one molecule from patent publication US20240358767A1, “STEM CELL DIFFERENTIATION AND CHEMICAL COMPOUNDS” (VERTEX PHARMACEUTICALS INCORPORATED, priority 2021, published 2024).

Where “and” joins values, the source holds several entries; their conditions need not be identical. Equal entries are not always repeated.

The subject of data set [1] is Stem cells. The data set is described as follows: 384-well screen of small molecule compounds for Stage 1 differentiation to Sox17-positive definitive endoderm cells (immunostaining, DAPI).
Protocol: In one experiment, more than 2100 small molecule compounds (“test compounds”) from a small molecule chemogenomic library were tested for their effects on Stage 1 differentiation from stem cells to Sox17-positive definitive endoderm cells. […] Each test compound was tested at about 8 different concentrations. The resulting cell population in each well was then examined by immunostaining and image analysis to determine the percentage of cells expressing Sox17 and/or Oct14 (via immunostaining of Sox17 and Oct 14), and total cell count (via DAPI staining). […] Quantification thresholds correspond to staining signal and were defined as low, normal, or high. Low indicates a low threshold was set for dectection of Sox17+ staining (i.e., easy to detect Sox17+) and high would be only highest expressing Sox17+ cells are detected.
Data set [2] deals with human stem cells. The data set is described as follows: Version A differentiation, flow cytometry of Nkx6.1 and Isl1 on day 7 of Stage 6 (S6d7). The format is cell-based. The conditions noted are these: for Markers on S6d7 Isl1 + /Nkx6.1+ / Markers on S6d7 Isl1 + /Nkx6.1−: 10% AA plus the compound(s) at Stage 1. As for the experimental part: (§1) An exemplary base differentiation protocol, Version A, according to the present disclosure, was used for differentiating human stem cells into mature β cells capable of releasing insulin in response to glucose challenge in vitro.
(§2) Version A protocol is a 6-stage stepwise protocol. With Version A protocol, stem cells were treated with reagents in a manner similar to the Version A described in Example 1 of U.S. Patent Publication No. US20220090020A1, which is incorporated by reference herein in its entirety. In some experiments, Version A was modified such that 100 ng/mL Activin A at Stage 1 was replaced with a different concentration of Activin A as described below.
(§3) In one experiment, differentiation of the stem cells was initiated in spinner flasks using Version A protocol, and three different concentrations of Activin A (“AA”), 100 ng/mL (100%), 10 ng/mL (10%), and 5 ng/mL (5%), applied throughout the three days of Stage 1 were tested, while the remaining differentiation steps were kept the same. On QC days, e.g., upon completion of Stage 1 (“S1C”), completion of Stage 3 (“S3C”), or completion of Stage 5 (“S5C”), the cells were examined for their morphology and cell constituents. Specifically, 5 mL of cell cluster suspension solution were taken from the spinner flask, with 1 mL suspension aliquoted into a 24 well plate. Pictures of the cell clusters in the 24-well plate were taken under brightfield microscope. The cell clusters in the remaining 4 mL suspension were dispersed with TrypLE Express (Life Technologies; 12,604,013) at 37° C. for 20 min, fixed with 4% PFA for 20 mins at 4° C., blocked for 1 hour in FACS buffer (5% Donkey Serum and 0.05% Triton-100 in PBS) at room temperature, and stained with various antibodies against cell markers. Stained cells were then measured using an Accuri 6 flow cytometer (BD Biosciences) and analyzed using FlowJo software.
(§4) In one experiment, six different conditions for Stage 1 differentiation were tested: 100% Activin A, 10% Activin A, 10% Activin A plus GSK-690693, 10% Activin A plus BYL719, 10% Activin A plus GSK-690693 and BYL719, or 100% Activin A plus GSK-690693 and BYL719. Characterization of cell morphology and cell constituents were conducted similarly as described in EXAMPLE 1. FIGS. 2A-5E and Table 4 summarize the characterizations of the cells obtained under the six differentiation conditions at different stages.
In another experiment, the effects of the aforementioned six different conditions for Stage 1 differentiation on Stage 6 differentiation were tested under two Stage 6 medium regimens: regimen 1 (Table 5) and regimen 2 (Table 6).
For orientation: A flow cytometer gives signals particle by particle.

Data set [3] has as its system human stem cells. Description: Version A differentiation, flow cytometry of Pdx1, Cdx2 and Sox2 at completion of Stage 3 (S3C). The format is cell-based. As for the experimental part: as §1, §2, §3
(§5) In one experiment, four different conditions for Stage 1 differentiation were tested: 100% Activin A, 10% Activin A, 10% Activin A plus GSK-690693 (“GSK”), or 10% Activin A plus BYL719 (“BYL”). Characterization of cell morphology and cell constituents were conducted similarly as described in EXAMPLE 1. The experiment was repeated for four times. Table 3 summarizes the quantification of flow cytometry analysis results at S1C, S3C, and S5C, and total viable cell yield at S5C for the four runs. In all the four runs, 0.1 μM […] or 0.04 μM BYL719 was applied for 3 days of Stage 1, except that in the last two runs, Run 4 and Run 5, 0.04 μM of BYL719 was applied for only 2 days (days S1d1 and S1d2).
as §4

Data set [4] has as its system human stem cells. The data set is described as follows: Version A differentiation, flow cytometry of Nkx6.1 and Isl1 at completion of Stage 5 (S5C). The format is cell-based. The protocol:
as §1, §2, §3, §5, §4

In data set [5] the test system is human stem cells. The data set is described as follows: Stage 1 differentiation of stem cells (Version A protocol), flow cytometry of Oct4 and Sox17 at completion of Stage 1 (S1C). The format is cell-based. The protocol:
as §1, §2, §3
In another experiment, a dose-response test was conducted to examine the effects of different concentrations of Activin A at Stage 1 on stem cell differentiation. Five different concentrations of Activin A were tested: 100 ng/mL (100%), 20 ng/mL (20%), 10 ng/mL (10%), 5 ng/mL (5%), and 0 ng/mL (0%).
as §5, §4

Data set [6] has as its system human stem cells. The data set is described as follows: Total viable cell yield at S5C. Type of data set: cell-based. The conditions noted are these: 0.1 μM GSK for 3 days of Stage 1 plus 10% AA, Runs 4-5, listed as GSK. As for the experimental part:
as §1, §2, §5

[7] abbreviates: 10 ng/mL AA plus test compound, about 8 concentrations, dose-responsive manner.
Where [8] appears, read: 0.1 μM GSK for 3 days of Stage 1 plus 10% AA (10 ng/mL Activin A), Runs 3-5, listed as GSK.
Setting [9] is: 10% AA (10 ng/mL Activin A) plus the compound(s) at Stage 1.

For `CCn1c(-c2nonc2N)nc2c(C#CC(C)(C)O)ncc(OC[C@H]3CCCNC3)c21` [GSK-690693], in data set [1] (setting [7]), the “signal in Oct 4 channel” value is on record as “decrease” and the “signal in Sox17 channel” value is “increase”. In addition, the “Relative to 100 ng/mL AA (percentage of Sox17-positive cells normalized by the percentage with 100 ng/mL AA)” value in data set [1] (Stage 1 condition with 10 ng/mL AA and the test compound, 384-well plates) stood at 119%. Moreover, the “nuclear blebbing in the resulting cell population” value in data set [1] (visual inspection) is “not to induce”. Moreover, in data set [2] (10% AA (10 ng/mL Activin A) plus the compound(s) at Stage 1, day 7 of Stage 6), the “S6d7 Nkx6.1 + /Isl1+” value was 34.8%. Moreover, in data set [2] (Stage 6 Regimen 1), the “Markers on S6d7 Isl1 + /Nkx6.1+” value is given as 34.8 and the “Markers on S6d7 Isl1 + /Nkx6.1−” value was 8.17. In data set [2] (Stage 6 Regimen 2), the “Markers on S6d7 Isl1 + /Nkx6.1+” value is listed as 36.3 and the “Markers on S6d7 Isl1 + /Nkx6.1−” value stood at 8.17. Besides, the “S3C Pdx1” value in data set [3] (setting [8]) is 57.5 and 91.1 and 89.4. Besides, in data set [3] (setting [9]), the “S3C Pdx1 + /Cdx2+” value came to 6.70% and the “S3C Pdx1 + /Sox2+” value worked out at 37.3%. In addition, the “S5C Nkx6.1+/Isl1+” value in data set [4] (setting [8]) is 31.1 and 35.6 and 28.5. Further, the “S5C Nkx6.1+/Isl1+” value in data set [4] (setting [9]) is recorded as 28.5%. The “S1C Sox17+/Oct4−” value in data set [5] (0.1 μM GSK for 3 days of Stage 1 plus 10% AA (10 ng/mL Activin A), Runs 2-5, listed as GSK) is 69 and 84.9 and 91.6 and 60. In data set [5] (setting [9]), the “S1C Sox17 + /Oct4+” value came to 2.86% and the “S1C Sox17+/Oct4−” value amounted to 91.6%. Moreover, in data set [6], the St5C yield was 3.02e+06 mL⁻¹ and 5.4416e+06 mL⁻¹.
